From PMC6458995, “MAP4K4 Inhibition Promotes Survival of Human Stem Cell-Derived Cardiomyocytes and Reduces Infarct Size In Vivo” (Cell Stem Cell, 2019)

Experiments:
[1] = system: vCor.4U cells as hEHT; assay: 3D human engineered heart tissue (hEHT) challenged with menadione; format: cell-based
Protocol: Fibrin-based hEHTs were generated between flexible silicone posts as described ([Breckwoldt et al., 2017], [Hansen et al., 2010]), with minor modifications. 1.8 mL well^-1 of 2% agarose in PBS was pipetted into 24-well plates, Teflon spacers (EHT Technologies) were placed inside each well as a casting mold, and the agarose was left to set for 15 min. The spacers were removed from each well, and a pair of polydimethylsiloxane posts was inserted from above (EHT Technologies: Young’s modulus […], length 10 mm, radius, 0.5 mm). VCor.4U cells (4 × 10^6) were resuspended in 400 μL of master mix (340 μL DMEM (Biochrom), 10% heat-inactivated fetal calf serum (GIBCO), 2 mM glutamine (Life Technnologies), 1% penicillin/streptomycin (GIBCO); 60 μL 2x DMEM (GIBCO), 20% horse serum (GIBCO), 2% penicillin/streptomycin). Bovine fibrinogen (Sigma) was added (10 μL: 200 mg mL^-1, 95 μg mL^-1 aprotinin (Sigma), 0.9% NaCl), and 100 μL aliquots were transferred to PCR tubes containing 3 μL of 100 U ml^-1 thrombin (Biopur) in 60% PBS. Cell suspensions then were immediately transferred to the agarose casting molds. After 90 min to allow solidification, 300 μL well^-1 of EHT medium was added (DMEM, 10% horse serum, 0.1% human insulin (Sigma), 0.1% aprotinin), to hydrate the gels for a further 50 min. The hEHTs were then transferred to fresh 24-well plates with 1.5 mL well^-1 of EHT medium, which was replaced every Monday, Wednesday, and Friday for 12 d. Auxotonic force measurements were performed daily by optical tracking ([Hansen et al., 2010]) and calculated on the basis of post deflection distance (δ), post length (L), post radius (R), and the elastic modulus (E), using the formula F = 3πER^4δ4L^-3 ([Schaaf et al., 2011]) and the indicated post parameters. Beating rate and force generation increased between d 5 and 10 and were stable for at least 7 d thereafter. On day 12, the hEHTs were challenged for 24 hr with menadione, in the absence or presence of DMX-5804. Medium, including DMX-5804, was replenished daily. […]

[2] = system: vCor.4U cells; assay: Hypoxia-reoxygenation assay (CellTox Green); format: cell-based, human; settings: 3 cycles of 0.1% O2 over 8 h
Protocol: vCor.4U cells were plated at 10,000 well^-1 in Cor.4U medium using black, clear-bottom 96-well plates pre-treated with Geltrex (GIBCO). After incubation overnight at 37°C, the media was replaced with phenol red-free DMEM (GIBCO) supplemented with 2% FCS, 2 mM […], 1 mM pyruvate and 10 mM D-galactose. DMX-5804 prepared in DMSO and CellTox Green (Promega) were added and incubated for 1 hr at 37°C. A breathable seal (AeraSeal) was added to the plate before transferring to a CLARIOstar plate reader (BMG Labtech) equipped with an atmospheric control unit. Oxygen concentration ramping was executed as follows (% O2, hr), at 37°C and 5% CO2. Fluorescence measurements (λex/em 483-14/530-30) were taken using the multiple scan and direct bottom features (5 positions read), and matrix averaging of each position every 20 min. Data were blank corrected, averaged (n = 2) and subjected to exponential smoothing with a damping factor of 0.3.

[3] = system: cardiomyocyte apoptosis; assay: Cardiomyocyte apoptosis after myocardial infarction (TUNEL staining); format: in vivo, mice; settings: post-injury study
Protocol: Mice were treated subcutaneously with 0.024 mg buprenorphine (average, 1.1 mg kg^-1; […] Animal Health), intubated, and ventilated using a tidal volume of 250 μL and respiratory rate of 150 breaths min^-1 (Hugo-Sachs MiniVent type 845; Harvard Apparatus). After a left thoracotomy in the fourth intercostal space, the pericardium was removed. A 6-0 polypropylene suture was used to […] anterior descending coronary artery (LAD) and tied against a short section of PE-50 polyethylene tubing for 45 min; blood flow was re-established by removing the tubing, releasing the ligature. Ischemia and reperfusion were substantiated by reversible distal blanching and ST segment elevation. Mice were allowed to recover in a heated chamber for 20 min, then moved to a normal holding cage with supplemental heat if necessary. […] Nuclei were stained with 2.5 μg ml^-1 diamidinophenolindole (DAPI). Alternatively, fixed frozen sections were used. Cleaved DNA (apoptotic cells) was visualized using TUNEL ApopTag Kits (Millipore). Cardiomyocytes were identified using MF20 antibody to sarcomeric myosin heavy chains (MyHC; R&D Systems) (fluorescein-conjugated: Figure S3C; unconjugated, plus Alexa Fluor-555 anti-mouse IgG: Figure […]; conjugated and unconjugated mouse IgG2b were the respective controls). Sections were counterstained with DAPI and treated with Prolong Gold Antifade Mountant (Life Technologies). […]

[4] = system: rat ventricular myocytes; assay: Rat cardiac muscle cell death induced by H2O2 (sub-G1 DNA, flow cytometry); format: cell-based
Protocol: Ventricular myocytes from 1 to 3 day-old Sprague-Dawley rats were enzymatically dissociated, purified by Percoll gradient centrifugation and pre-plating, and cultured as described ([Oh et al., 2003]). To detect hypodiploid DNA, flow cytometry was performed (XL or LSRII, BD Biosciences), using propidium iodide to measure DNA content and sampling > 5000 cells for each histogram. Myocyte identity was confirmed using FITC-conjugated MF-20 antibody to sarcomeric MyHC (R&D Systems). To detect dissipation of mitochondrial membrane potential (ΔΨm), cells were incubated for 60 min in 5 μg ml^-1 5, 5′, 6, 6’-tetrachloro-1, 1’, 3, 3′-tetraethylbenzimidazolyl carbocyanine iodide (DePsipher; R&D Systems). When ΔΨm is intact, mitochondrial uptake and aggregation of the dye result in red fluorescence; when ΔΨm is disturbed, the dye diffuses to the cytoplasm and reverts to its monomeric green form. Myocyte identity was confirmed using mouse antibody to sarcomeric tropomyosin (Sigma-Aldrich) conjugated with Texas Red-X (Molecular Probes).

Row | Compound | cell death from menadione in hEHT ([1]; 10 μM, first 24 h) | adverse effect on cardiomyocyte viability, rhythmicity, calcium handling, mitochondrial function, force generation ([1]; 2D culture or hEHT) | rescue of contractile function in hEHT ([1]; 3 or 10 μM, 60 min and 24 h, not later) | protection of human cardiomyocyte survival, hypoxia-reoxygenation [2] | suppression of cardiomyocyte apoptosis in adjacent jeopardized myocardium [3] | suppression of cardiomyocyte apoptosis within the infarct [3] | rat cardiomyocyte death ([4]; H2O2, even at 1 μM) | inhibition at 10 µM ([4]; Ventricular myocyte, rat ventricular myocytes, 10 μM) | adverse effect of compound ([4]; rat ventricular myocytes, any of the concentrations (1-10 μM))
1 | COCCOc1ccc(-c2cn(-c3ccccc3)c3nc[nH]c(=O)c23)cc1 [DMX-5804, 5-[4-(2-methoxy-ethoxy)-phenyl]-7-phenyl-3,7-dihydro-pyrrolo[2,3-d]pyrimidin-4-one] | suppressed | no adverse effect | virtually complete | confirmed | 52% | 39% | – | – | –
2 | Oc1ncnc2c1c(-c1ccccc1)cn2-c1ccccc1 [F1386-0303, 5,7-diphenyl-7H-pyrrolo[2,3-d]pyrimidin-4-ol] | – | – | – | – | – | – | inhibited | ~50% | No adverse effect
